# Measured values: publication PMC4399838, “Antipsychotic-Like Effect of the Muscarinic Acetylcholine Receptor Agonist BuTAC in Non-Human Primates” (PLoS ONE, 2015)
# “Also recorded” adds a separate entry of the source.
# How the values were obtained:
# [1] = target: T1, human M3 muscarinic receptor (Homo sapiens, UniProt P20309); assay: GTP-γ-[35S] binding, antibody capture SPA (agonist and antagonist mode); type: biochemical
# T1 construct: purchased PerkinElmer Life and Analytical Sciences, Boston, MA
# Method: (§1) The antibody capture scintillation proximity technique previously described by DeLapp et al was used in a 96-well plate to determine GTP-γ-[35S] binding. One hundred μl (20–40 fmol/well) of membrane preparation from CHO cells that stably express the human M1-M5 muscarinic receptors (PerkinElmer Life and Analytical Sciences, Boston, MA) were incubated with varying concentration of test compound (final concentrations from 50pM to 1μM) for 30 min. One μM final concentration of GDP was added to M2 and M4 receptor membranes before incubation. […] (500 pM final concentration; Perkin Elmer Life and Analytical Sciences) was added to each well followed by 30 min of incubation. Then the labelled membranes were solubilized with 0.27% Nonidet P40 for 30 min where after they were incubated with 20 μl (final dilution of 1:400) of the appropriate rabbit polyclonal Gα antibody (Covance, Princeton, NJ) for 60 min. An anti-Gαq/11 antibody was used for the M1-, M3-, and M5 membranes, whereas an anti-Gαi-3 antibody was used for the M2- and M4 membranes (Eli Lilly and Company, Indianapolis, IN). After 60 min of incubation, 50 μl (1.25 mg/well) anti-rabbit scintillation proximity assay (SPA) beads (GE Healthcare, Piscataway, NJ) were added per well where after the plates were incubated for another 3 h. By use of a Wallac MicroBeta TriLux scintillation counter (PerkinElmer), the plates were centrifuged for 10 min at 700 × g and counted for 1 min per well. The incubations took place at room temperature in GTP-binding assay buffer (20 mM Hepes, 100 mm NaCl, 5 mM MgC12, pH 7.4). The data were analyzed by use of nonlinear regression for a sigmoidal concentration response curve (GraphPad Prism v. 4.0). Data were normalized to a full agonist response (100 μM oxotremorine-M). […] The antagonist percent inhibition data were normalized to data generated with an EC90 concentration of acetylcholine. The mean relative EC50, IC50, and %Emax, and pKi values were calculated as a mean of at least three independent experiments±SEM. In order to obtain relevant comparisons between subtypes, the experimental system is routinely calibrated with reference agonists (oxotremorine-M, pilocarpine, MCN-A343) to measure full and partial agonism as well as to ensure that the system is not under- or over-reporting functional efficacies. The radioligand binding assays have earlier been described.
# [2] = target: T2, human M2 muscarinic receptor (Homo sapiens, UniProt P08172); assay: as above; type: biochemical
# T2 construct: purchased PerkinElmer Life and Analytical Sciences, Boston, MA
# T2 sequence (P08172 1-466): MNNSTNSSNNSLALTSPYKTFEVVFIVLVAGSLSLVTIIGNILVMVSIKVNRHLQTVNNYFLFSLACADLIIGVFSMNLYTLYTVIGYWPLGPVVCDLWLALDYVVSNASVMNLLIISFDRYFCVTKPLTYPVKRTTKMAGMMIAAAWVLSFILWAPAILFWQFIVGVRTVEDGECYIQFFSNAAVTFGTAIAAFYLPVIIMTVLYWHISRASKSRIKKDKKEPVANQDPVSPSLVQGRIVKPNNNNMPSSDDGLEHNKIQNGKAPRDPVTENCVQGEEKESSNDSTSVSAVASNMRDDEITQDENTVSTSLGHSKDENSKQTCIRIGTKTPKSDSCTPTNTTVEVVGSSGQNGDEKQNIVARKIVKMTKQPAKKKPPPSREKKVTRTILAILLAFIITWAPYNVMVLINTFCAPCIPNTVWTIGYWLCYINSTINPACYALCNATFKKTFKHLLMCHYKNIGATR
# Method: as §1
# EPS sensitized monkeys = assay: Side effects (EPS) of BuTAC in EPS-sensitized monkeys; type: in vivo, Cebus Apella
# Method: Seven male Cebus Apella monkeys were used for evaluation the anti-amphetamine effect and the side effect profile of BuTAC. These monkeys were never before administered antipsychotics and had never experienced EPS, but had previously been administered amphetamine. For further evaluation of the EPS potential of BuTAC, the compound was tested in four male and female monkeys, all sensitized to drug-induced EPS by earlier chronic treatment with classical antipsychotic drugs.
# The EPS sensitized monkeys were originally caught in the wild and had been at the laboratory for 13–20 years at the time of testing. The EPS naïve monkeys were born in captivity and had been at the laboratory for 7 years at the time of testing. They were between 11 and 18 years old, when the studies were initiated. The monkeys weighed between 2.5 kg (smallest female) and 5 kg (largest male). Their weight was monitored weekly and they were regularly checked by a veterinarian.
# The rated primate behaviours and symptoms were the following: unrest, stereotypy, arousal, sedation and bradykinesia (Table 1). All monkeys were videotaped in 90-sec. sessions at specific time points throughout the test sessions. The videotapes were rated for amphetamine-induced behaviours and EPS by two experienced raters blinded to the treatment of the animal by means of a rating scale adapted from Peacock et al. and previously described by Andersen et al. (Table 1). In case of any discrepancy between the two ratings, the recording in question was re-evaluated and a rating agreed upon. The monkeys were videotaped at t = 30, 60, 90, 135, 150, 165, 180, 240, 300 min after BuTAC (or vehicle) administration. For the combination studies, d-amphetamine was injected at t = 120 min. Oral dyskinesia was measured in counts per 90 sec. The severity of other behaviours and symptoms were rated on a scale ranging from 0 (not present) to 6 (extreme presence).
# For evaluation of anti-amphetamine effects, BuTAC was tested in doses of 0.001, 0.003, 0.01 mg/kg in combination with 0.5 mg/kg of d-amphetamine. BuTAC or peanut oil vehicle was injected s.c. at approximately 9 a.m. Pre-treatment time before s.c. injection of amphetamine was 120 min. For evaluation of side effects, BuTAC was tested alone at doses of 0.001, 0.003 and 0.01 mg/kg in antipsychotic-naïve monkeys and at doses of 0.003 and 0.01 mg/kg in monkeys sensitized to extrapyramidal side effects (EPS) by earlier long-term treatment with first generation antipsychotics. […] None of the animals were sacrificed.
# [3] = antagonist mode, maximal inhibition of EC90 agonist response
# [4] = percentage of maximum 100 μM oxotremorine-M signal
# [5] = BuTAC 0.01 mg/kg, four EPS sensitized monkeys
# T1 sequence (P20309 whole entry): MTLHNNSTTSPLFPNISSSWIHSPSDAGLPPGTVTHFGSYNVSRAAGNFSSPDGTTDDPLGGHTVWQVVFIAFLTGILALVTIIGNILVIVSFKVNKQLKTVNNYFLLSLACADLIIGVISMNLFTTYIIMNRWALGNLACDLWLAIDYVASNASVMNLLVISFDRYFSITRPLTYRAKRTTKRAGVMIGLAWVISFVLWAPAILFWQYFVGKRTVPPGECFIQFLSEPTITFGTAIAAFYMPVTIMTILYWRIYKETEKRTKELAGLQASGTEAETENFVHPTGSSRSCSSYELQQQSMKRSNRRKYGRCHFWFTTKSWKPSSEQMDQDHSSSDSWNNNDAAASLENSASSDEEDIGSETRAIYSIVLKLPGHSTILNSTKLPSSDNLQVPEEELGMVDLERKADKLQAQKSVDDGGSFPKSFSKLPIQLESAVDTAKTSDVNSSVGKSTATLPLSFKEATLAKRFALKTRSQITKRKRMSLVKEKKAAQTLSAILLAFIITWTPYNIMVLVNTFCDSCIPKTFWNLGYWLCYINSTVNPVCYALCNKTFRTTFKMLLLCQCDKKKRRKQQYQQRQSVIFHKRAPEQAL
Structure (SMILES),EC50 [1],IC50 [1],"% Inhibition [1, 3]","Emax [1, 4]",EC50 [2],IC50 [2],"% Inhibition [2, 3]","Emax [2, 4]",EPS (EPS sensitized monkeys; BuTAC 0.003 mg/kg),Mild bradykinesia (monkeys affected) (EPS sensitized monkeys; [5]),Oral dyskinesia and dystonia (EPS sensitized monkeys; [5]),Sedation (monkeys affected) (EPS sensitized monkeys; [5]),"EPS (EPS sensitized monkeys; lower doses, 0.001- or 0.003 mg/kg of BuTAC (discussion))"
"CCCSc1nsnc1[C@H]1CN2CCC[C@H]1C2 [PTAC, (5R,6R) 6-(3-propylthio-1,2,5-thiadiazol-4-yl)-1-azabicyclo-[3.2.1]-octane]",1.95 nM,20.4 nM,90.45 ± 3.52%,11.9 ± 3.07%,0.501 nM,3.47 nM,16.8 ± 5.49%,68.5 ± 5.23%,–,–,–,–,–
"CCCCSc1nsnc1[C@H]1CN2CCC[C@H]1C2 [BuTAC, (5R,6R)-6-(3-butylthio-1,2,5-thiadiazol-4-yl)-1-azabicyclo[3.2.1]octane]",–,–,–,–,–,–,–,–,no EPS,Two,not observed; also recorded: no signs,all four,no signs of EPS
